{"source": "patent US8552064B2", "about": "“Suramin and derivatives thereof as topical microbicide and contraceptive” (Eastern Virginia Medical School, priority 2005, dated 2013)", "key": {"[1]": {"test_system": "sperm", "experiment": "Sperm progressive motility dose-response and time studies, CASA", "type": "cell-based, human"}, "[2]": {"test_system": "sperm penetration in cervical mucus", "experiment": "Modified One End Test (MOET), sperm penetration in bovine cervical mucus", "type": "cell-based", "description": "Bovine cervical mucus was obtained from Humagen (Charlottesville, Va.) in the form of prepackaged flat capillary tubes (Penetrak®), kept frozen and thawed right prior to the experiment. The Modified One End Test (MOET) [(described in Doncel G. F., in “Barrier Contraceptives”, Wiley-Liss, Mauck C. K. et al. eds., pp. 147-162 (1994)] was used to determine the effect of compounds, such as suramin sodium described herein, on sperm penetration in cervical mucus. Each of the test compositions containing the compound to be tested were diluted in a saline solution, i.e., at 9 grams of NaCl per liter of water. Tubes of cervical mucus were broken open. The open end was placed in a container containing the test compound in saline. The test compound was allowed to diffuse for 30 minutes through the tube. A semen sample, obtained from normal healthy donors, was then diluted with a buffer solution to 60 million motile sperm per milliliter and mixed with the test compound sample (i.e., suramin sodium). The tube containing the test compound sample was then re-inserted into the container containing the mixed solution and stored in an incubator at 37° C. in an atmosphere of 5 percent carbon dioxide in air for 60 minutes. The container and tube were then removed from the incubator and the tube was visually analyzed under a microscope for the migration of motile vanguard sperm through the tube. The results are expressed as percentage of migration as compared to control samples. In the control samples, the tubes were incubated with saline containing no compound. […]"}, "[3]": {"test_system": "human sperm acrosome reaction", "experiment": "Acrosome reaction ionophore challenge test (ARIC)", "type": "cell-based", "description": "The acrosome reaction ionophore challenge test (ARIC) was used, as described in Cummins J. M., et al., J. Androl., 12: 98-103 (1991), to measure the proportion of spermatozoa that respond to a calcium ionophore (typically, A23187), developing an acrosome reaction. More specifically, this test was used to determine whether suramin sodium affects the ionophore-induced acrosome reaction of the sperm, therefore altering the capacity of sperm to penetrate an egg. Results are expressed in percent inhibition of control (untreated sperm) acrosome reactions. 2."}, "[4]": {"test_system": "SIV", "experiment": "SIV reverse transcriptase assay", "type": "cell-based", "description": "Reverse transcriptase activity, a measurement of virus replication, was measured in cell-free supernatants. Tritiated thymidine triphosphate (NEN) (TFP) was resuspended in distilled H2O at 5 Ci/mL. Poly rA and oligo dT were prepared as a stock solution which was kept at −20° C. The RT reaction buffer was prepared fresh on a daily basis and consisted of 125 μL 1.0 M EGTA, 125 μL dH2O, 110 μL 10% […], 50 μL 1.0 M Tris (pH 7.4), 50 μL 1.0 M DTT, and 40 μL 1.0 M MgCl2. These three solutions were mixed together in a ratio of 2 parts TTP, 1 part poly rA:oligo dT, and 1 part reaction buffer. Ten microliters (10 μL) of this reaction mixture was placed in a round bottom microtiter plate and 15 μL of virus containing supernatant added and mixed. The plate was incubated at 37° C. for 60 minutes. Following reaction, the reaction volume was spotted onto pieces of DE81 paper, washed 5 times for 5 minutes each in a 5% sodium phosphate buffer, 2 times for 1 minute each in distilled water, 2 times for 1 minute each in 70% ethanol, and then dried. Opti-Fluor 0 was added to each sample and incorporated radioactivity quantitated utilizing a Wallac 1450 Microbetaplus liquid scintillation counter. The results of this assay are provided herein."}, "[5]": {"test_system": "human vaginal cell line (VK2)", "type": "cell-based", "description": "Vaginal cytotoxicity was determined by 3-[4,5-dimethylthiazol-2-yl]-2,5-diphenyl tetrazolium bromide (MTT) assay and cytokine assays, both as described in Fichorova R. N. et al., J. Infect. Dis. 184(4): 418-28, 2001). The MTT assay assesses the cytotoxicity of various compounds against cell lines by plating the desired cells prior to exposure to the compounds. On the day of treatment, culture medium was carefully aspirated from the wells and replaced with fresh medium containing the test compound at various concentrations. The cells were incubated with the various compounds for 6 hours, washed with fresh medium and MTT was then added and the plates were incubated at 37° C. for a period of time sufficient to allow MTT to form formazan crystals by reacting with metabolically active cells. The formazan crystals were solubilized overnight at 37° C. in a solution containing 10% SDS in 0.01 M HCl. The absorbance of each well was measured in a microplate reader (Dynex) at 540 nm and a reference wavelength of 690 nm."}, "[6]": {"experiment": "Pharmacokinetics in female rats, intravenous and intravaginal", "type": "in vivo, rat", "details": "for Vd: read-out: Vdss", "description": "Female rats (n=6) were administered with 30 mg of compound per kg in a single I.V. dose in saline or intravaginally, BID, for 5 days, formulated in KY jelly. The selected single dose represented 10 times the estimated human dose (250 mg). […] Following intravenous administration, relatively high concentrations of suramin sodium (mean value=563 μg/mL) were measured in plasma at 1 hour (first time-point) following the onset of dosing. […] The mean volume of distribution was calculated at 147 mL/kg."}, "[7]": {"details": "female, rat, plasma, IV: single dose 30 mg/kg"}, "[8]": {"details": "female, rat, plasma, IVag: 30 mg/kg BID for 5 days"}}, "note": "Read-outs that look alike come from different tables or passages of the source."}
{"smiles": "Cc1ccc(C(=O)Nc2ccc(S(=O)(=O)O)c3cc(S(=O)(=O)O)cc(S(=O)(=O)O)c23)cc1NC(=O)c1cccc(NC(=O)Nc2cccc(C(=O)Nc3cc(C(=O)Nc4ccc(S(=O)(=O)O)c5cc(S(=O)(=O)O)cc(S(=O)(=O)O)c45)ccc3C)c2)c1", "note": "[Suramin, 8,8′-(carbonylbis(imino-3,1-phenylenecarbonylimino(4-methyl-3,1-phenylene)carbonylimino))bis-1,3,5-naphthalene trisulfonic acid]", "values": [{"measurement": "sperm motion parameters by CASA", "setting": "[1]; 1 mM", "result": "no significant changes in sperm motion parameters"}, {"measurement": "sperm motion characteristics vs control", "setting": "[1]; 7.5 mg/mL", "result": "did not appear to be significantly different"}, {"measurement": "sperm progressive motility and membrane integrity vs solvent control", "setting": "[1]; 1-10,000 μg/mL or 5-0.07 mM", "result": "no alteration of sperm progressive movement and viability"}, {"measurement": "sperm motility, time-dependent study", "setting": "[1]; suboptimal doses, prolonged incubation (e.g., 30 min.)", "result": "no alteration of sperm motility"}, {"measurement": "MOET % CTL", "setting": "[2]; 6.25 mg/ml", "result": "96.1 ± 0.9", "unit": "% CTL"}, {"measurement": "MOET % CTL", "setting": "[2]; 12.5 mg/ml", "result": "94.9 ± 2.2", "unit": "% CTL"}, {"measurement": "sperm impediment in MOET", "setting": "[2]; 25 mg/mL or below", "result": "No significant sperm impediment"}, {"measurement": "MOET % CTL", "setting": "[2]; 25 mg/ml", "result": "95.9 ± 1.4", "unit": "% CTL"}, {"measurement": "inhibition of sperm penetration in MOET", "setting": "[2]; 50 mg/mL (5%)", "result": "only minor inhibition of sperm penetration"}, {"measurement": "MOET % CTL", "setting": "[2]; 50 mg/ml", "result": "72.3 ± 7.1", "unit": "% CTL"}, {"measurement": "degree of inhibition of sperm penetration", "setting": "[2]; KY, suramin sodium in KY and suramin sodium alone at the same concentration", "result": "~4", "unit": "%"}, {"measurement": "effect on spontaneous and ionophore-induced acrosome reaction", "setting": "[3]", "result": "neither to stimulate spontaneous acrosome reaction (acrosomal loss) nor to block the Ca^2+ ionophore-induced reaction"}, {"measurement": "Percentage of acrosome-reacted Sperm", "setting": "[3]; Calcium-ionophore treatment (5 μM A23187): +", "result": "31.4 ± 15.1", "unit": "%"}, {"measurement": "Percentage of acrosome-reacted Sperm", "setting": "[3]; Calcium-ionophore treatment (5 μM A23187): −", "result": "5.28 ± 1.93", "unit": "%"}, {"measurement": "Potency, Acrosome Reaction (ARIC)", "setting": "[3]; induction or inhibition of acrosome reaction", "result": "None"}, {"measurement": "Potency, SIV Reverse transcriptase", "setting": "[4]", "result": "High"}, {"measurement": "IC50", "setting": "[4]; Simian immunodeficiency virus", "result": 4, "unit": "µg/mL"}, {"measurement": "cytotoxicity in comparative study", "setting": "[5]", "result": "the least cytotoxic of them all"}, {"measurement": "clinical signs", "setting": "[6]; 30 mg/kg I.V. or intravaginally BID 5 days", "result": "No clinical signs were observed"}, {"measurement": "t½", "setting": "[6]; IV: single dose 30 mg/kg, 30 mg/kg", "result": 68.6, "unit": "h"}, {"measurement": "Kel", "setting": "[6]; IV: single intravenous dose of 30 mg/kg, female rats, plasma", "result": 0.0102}, {"measurement": "t½", "setting": "[6]; IVag: 30 mg/kg BID for 5 days, listed as Suramin sodium", "result": 132, "unit": "h"}, {"measurement": "Kel", "setting": "[6]; IVag: intravaginal 30 mg/kg BID for 5 days in KY jelly", "result": 0.005}, {"measurement": "bioavailability after intravaginal administration", "setting": "[6]; calculated from the total dose (90 mg) administered intravaginally", "result": "< 1", "unit": "%"}, {"measurement": "histological lesions in vagina, lungs, liver and kidneys", "setting": "[6]; female rats receiving the intravenous solution", "result": "No histological lesions were observed"}, {"measurement": "AUC", "setting": "[6]; female, rat, plasma, 30 mg/kg, IVag: 30 mg/kg BID for 5 days, zero to 144 hr post dose, read-out: AUC(tf)", "result": 1170, "unit": "µg·h/mL"}, {"measurement": "AUC", "setting": "[6]; female, rat, plasma, 30 mg/kg, IVag: 30 mg/kg BID for 5 days, zero to infinity, read-out: AUC(I)", "result": 2280, "unit": "µg·h/mL"}, {"measurement": "half-life", "setting": "[6]; female, rat, plasma, 30 mg/kg, intravaginal administration, read-out: mean half-life (converted)", "result": "~132", "unit": "h"}, {"measurement": "bioavailability", "setting": "[6]; female, rat, plasma, 90 mg, calculated from the total dose (90 mg) administered intravaginally, read-out: bioavailability after intravaginal administration", "result": 0.8, "unit": "%"}, {"measurement": "half-life", "setting": "[6]; female, rat, plasma, iv, 30 mg/kg, IV: single dose 30 mg/kg, read-out: t½ (converted)", "result": 68.5, "unit": "h"}, {"measurement": "AUC", "setting": "[6]; female, rat, plasma, iv, 30 mg/kg, IV: single dose 30 mg/kg, zero to 144 hr post dose, read-out: AUC(tf)", "result": 13900, "unit": "µg·h/mL"}, {"measurement": "AUC", "setting": "[6]; female, rat, plasma, iv, 30 mg/kg, IV: single dose 30 mg/kg, zero to infinity, read-out: AUC(I)", "result": 17300, "unit": "µg·h/mL"}, {"measurement": "clearance", "setting": "[6]; [7]", "result": 0.0292, "unit": "mL/min"}, {"measurement": "Vd", "setting": "[6]; [7]", "result": 0.147, "unit": "L/kg"}, {"measurement": "Cmax", "setting": "[6]; female, rat, plasma, IV: single intravenous dose of 30 mg/kg, at 1 hour", "result": 563, "unit": "µg/mL"}, {"measurement": "clearance", "setting": "[6]; [8]", "result": 0.0001, "unit": "mL/min"}, {"measurement": "Cmax", "setting": "[6]; female, rat, plasma, IVag: 30 mg/kg BID for 5 days, at 3.5 hours following the last dose", "result": 17.7, "unit": "µg/mL"}, {"measurement": "Vd", "setting": "[6]; [8]", "result": 0.132, "unit": "L/kg"}]}
